Literature values as cited in PMC8319603, “Developing C2-Aroyl Indoles as Novel Inhibitors of IDO1 and Understanding Their Mechanism of Inhibition via Mass Spectroscopy, QM/MM Calculations and Molecular Dynamics Simulation” (Frontiers in Chemistry, 2021).
Where two headings read alike, the source gives them in different places.

Assays:
SKOV3 = tested on: SKOV3; parameters: method as in Siu et al., 2017; Wen et al., 2019; conditions: Figure 1; ref Siu et al., 2017; Wen et al., 2019; cited from earlier work
hIDO1 = conditions: 2017, cited from earlier work
HeLa = conditions: Figure 1; ref Prendergast et al., 2017; cited from earlier work

With `C[C@@H](C(=O)Nc1ccc(Cl)cc1)C1CCC(c2ccnc3ccc(F)cc23)CC1` (some centres unmarked) [1e] as the compound, how does the IC50 (SKOV3) read?
The IC50 was 3.4 nM.

What does the source list for `NS(=O)(=O)NCCNc1nonc1C(=NO)Nc1ccc(F)c(Br)c1` [1b]?
IC50 (hIDO1; ref Prendergast et al., read-out: IC50 against IDO1): […]; IC50 (HeLa): 1.5 nM

For `O=C1CC(c2c[nH]c3ccc(F)cc23)C(=O)N1` (centres unmarked) [1d], which IC50 (hIDO1; Figure 1, ref Siu et al., Wen et al., 2019, read-out: IC50 (IDO1)) is on record?
The IC50 was […].

And the IC50 (SKOV3)?
The IC50 was 70 nM.
